These results are taken from patent publication US20200109126A1 (priority 2017, published 2020).

Structures are written as SMILES.

Usually Ki stands for the equilibrium dissociation constant of an inhibitor or competing ligand from its target.

In one assay the target is μOR (Homo sapiens, UniProt P35372). The assay can be described thus: cell-based. Type of assay: cell-based.
Another assay deals with hMOR (Homo sapiens, UniProt P35372). The assay can be described thus: Receptor binding with [3H]diprenorphine at hMOR. To be noted: PZM analogs; (n) = number of independent experiments; read-out: binding affinity Ki hMOR.
The target in a further assay is humanDOR (Homo sapiens, UniProt P41143). Briefly: Receptor binding with [3H]diprenorphine at human DOR. The following applies: PZM analogs; (n) = number of independent experiments; read-out: binding affinity Ki hDOR.
The target of the next assay is hKOR (Homo sapiens, UniProt P41145). The assay can be described thus: Receptor binding with [3H]diprenorphine at hKOR. To be noted: PZM analogs; (n) = number of independent experiments; read-out: binding affinity Ki hKOR.
Chain of hKOR (P41145 whole entry): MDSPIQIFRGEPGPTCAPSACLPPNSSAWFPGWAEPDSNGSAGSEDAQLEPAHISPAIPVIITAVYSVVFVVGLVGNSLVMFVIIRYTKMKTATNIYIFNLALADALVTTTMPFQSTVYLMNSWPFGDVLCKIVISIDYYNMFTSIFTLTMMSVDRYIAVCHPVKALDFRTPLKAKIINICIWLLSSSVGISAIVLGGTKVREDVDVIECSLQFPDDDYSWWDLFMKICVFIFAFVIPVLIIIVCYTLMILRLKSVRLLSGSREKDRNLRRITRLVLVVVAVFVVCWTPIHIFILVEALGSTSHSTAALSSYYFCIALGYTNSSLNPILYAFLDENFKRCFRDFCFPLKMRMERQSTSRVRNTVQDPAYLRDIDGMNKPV

Chain of humanDOR (P41143 whole entry): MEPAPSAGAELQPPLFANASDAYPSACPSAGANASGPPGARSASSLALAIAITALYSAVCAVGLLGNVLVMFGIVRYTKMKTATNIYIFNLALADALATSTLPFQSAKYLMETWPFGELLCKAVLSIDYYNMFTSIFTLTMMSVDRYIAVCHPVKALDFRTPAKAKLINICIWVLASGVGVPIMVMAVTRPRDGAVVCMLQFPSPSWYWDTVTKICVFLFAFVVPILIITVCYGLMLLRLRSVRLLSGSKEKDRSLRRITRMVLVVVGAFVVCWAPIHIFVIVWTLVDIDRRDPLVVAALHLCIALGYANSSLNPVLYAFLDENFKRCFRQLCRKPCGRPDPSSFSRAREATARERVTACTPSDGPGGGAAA
Chain of hMOR (P35372 whole entry): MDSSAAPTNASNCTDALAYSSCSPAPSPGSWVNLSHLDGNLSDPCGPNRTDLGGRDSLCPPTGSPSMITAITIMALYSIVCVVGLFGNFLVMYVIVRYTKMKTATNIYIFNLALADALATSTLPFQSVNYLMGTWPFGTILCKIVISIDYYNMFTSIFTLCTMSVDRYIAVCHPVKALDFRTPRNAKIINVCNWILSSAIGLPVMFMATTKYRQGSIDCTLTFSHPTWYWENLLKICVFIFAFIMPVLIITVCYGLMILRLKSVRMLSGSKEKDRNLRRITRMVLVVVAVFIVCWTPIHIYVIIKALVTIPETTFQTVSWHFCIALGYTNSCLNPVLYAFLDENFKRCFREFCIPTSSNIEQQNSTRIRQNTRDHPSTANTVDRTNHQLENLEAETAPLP
Chain of μOR (P35372 whole entry): as above

On to `C[C@H](Cc1ccsc1)NC(=O)NC[C@H](Cc1ccc(O)cc1)N(C)C` [(S,R)-21, 1-[(S)-2-(Dimethylamino)-3-(4-hydroxyphenyl)propyl]-3-((R)-1-(thiophen-3-yl)propan-2-yl)urea], for which, on μOR, the “Gi/o activation, μOR agonist activity (in words)” value is listed as “more potent partial agonist of the μOR as compared to (S,S)-21”.

Turning to `CN(C)[C@H](CNC(=S)NCCc1ccsc1)Cc1ccc(O)cc1` [drawing 501], the Ki on hMOR stood at 29 nM; on humanDOR, 70 nM; at hKOR, 86 nM.

Turning to `CN(C[C@H](Cc1ccc(O)cc1)N(C)C)C(=O)NCCc1ccccc1` [drawing 503], the Ki was 610 nM on hMOR, 1700 nM at humanDOR and 340 nM on hKOR.

As to `CN(CCc1ccccc1)C(=O)NC[C@H](Cc1ccc(O)cc1)N(C)C` [drawing 504], the Ki came out at 320 nM at hMOR, 1200 nM at humanDOR and 160 nM on hKOR.

Take `CN(CCc1ccccc1)C(=O)N(C)C[C@H](Cc1ccc(O)cc1)N(C)C` [drawing 505]: the results for the inhibition constant Ki at hMOR, at humanDOR and on hKOR were 490 nM, 4200 nM and 220 nM, respectively.

Regarding `CN(C)[C@H](CNC(=O)NCCc1ccccc1)Cc1ccc(O)cc1` [drawing 514], the Ki on hMOR came to 47 nM; on humanDOR, 250 nM; at hKOR it was 45 nM.

For the compound `C[C@H](Cc1ccccc1)NC(=O)NC[C@H](Cc1ccc(O)cc1)N(C)C` [drawing 516], the results for the Ki at hMOR, at humanDOR and at hKOR were 81 nM, 91 nM and 67 nM, respectively.

As for `C[C@@H](Cc1ccccc1)NC(=O)NC[C@H](Cc1ccc(O)cc1)N(C)C` [drawing 517], the inhibitory constant (Ki) amounted to 42 nM on hMOR, 360 nM at humanDOR and 37 nM at hKOR.

With `C[C@@H](Cc1csc2ccccc12)NC(=O)NC[C@H](Cc1ccc(O)cc1)N(C)C` [drawing 521], the figures for the inhibition constant Ki on hMOR, at humanDOR and on hKOR were 8.3 nM, 110 nM and 22 nM, respectively.

In the case of `Cc1ccc([C@H](C)NC(=O)NC[C@H](Cc2ccc(O)cc2)N(C)C)cc1` [drawing 523], the Ki is 150 nM at hMOR, 700 nM at humanDOR and 180 nM on hKOR.

Turning to `C[C@H](NC(=O)NC[C@H](Cc1ccc(O)cc1)N(C)C)c1cccc2ccccc12` [drawing 524], the inhibition constant (Ki) at hMOR came to 85 nM; at humanDOR, 540 nM; on hKOR, 74 nM.

In the case of `CN(C)[C@H](CNC(=O)NC1Cc2ccccc2C1)Cc1ccc(O)cc1` [drawing 526], the Ki was found to be 7.7 nM at hMOR, 56 nM at humanDOR and 51 nM at hKOR.

On to `CN(C)[C@H](CNC(=O)NC(C)(C)Cc1ccsc1)Cc1ccc(O)cc1` [drawing 528], for which the Ki on hMOR came out at 38 nM; at humanDOR it was 650 nM; at hKOR, 46 nM.

Turning to `CN(C)[C@H](CNC(=O)NC(C)(C)Cc1ccccc1)Cc1ccc(O)cc1` [drawing 530], the inhibition constant (Ki) on hMOR is 46 nM; at humanDOR, 920 nM; at hKOR, 91 nM.

For the compound `C[C@@H](Cc1ccsc1)NC(=O)NC[C@H](Cc1cccc(O)c1)N(C)C` [drawing 531], the Ki was 34 nM at hMOR, 350 nM on humanDOR and 46 nM on hKOR.

As to `CN(C)[C@H](CNC(=O)NC(C)(C)Cc1ccsc1)Cc1cccc(O)c1` [drawing 532], the Ki at hMOR worked out at 25 nM; on humanDOR, 190 nM; on hKOR it was 32 nM.

For `C[C@@H](Cc1ccsc1)NC(=O)NC[C@H](Cc1ccc(O)c(CO)c1)N(C)C` [drawing 535], the inhibition constant Ki on hMOR stood at 66 nM; at humanDOR, 1500 nM; on hKOR, 86 nM.

In the case of `Cc1cc(O)cc(C)c1C[C@@H](CNC(=O)N[C@H](C)Cc1ccsc1)N(C)C` [drawing 537], the inhibitory constant (Ki) was 4.1 nM on hMOR, 17 nM on humanDOR and 12 nM at hKOR.

With `Cc1cc(O)cc(C)c1C[C@@H](CNC(=O)N[C@@H](C)Cc1ccsc1)N(C)C` [drawing 538], the Ki on hMOR is 12 nM; on humanDOR, 85 nM; on hKOR, 6.5 nM.
